Measured values from article PMC10975765 (Pharmaceuticals, 2024).
Like-named read-outs stand apart in the source and are kept apart here.

How the values were obtained:
[1] = system: Salmonella typhimurium TA98; assay: Bacterial reverse mutation test (Ames test), TA98; details: TA98, +S9, positive control
Procedure: (§1) In brief, Salmonella typhimurium (TA98, TA100, TA102, TA1535, and TA1537) was cultured in a nutrient broth (12 mL) at 37 °C. […] Later, the mixture was added to 2 mL of top agar containing 0.5 mM L-histidine and 0.5 mM D-biotin. The mixture was agitated and poured onto the minimal agar plate and incubated at 37 °C for 48 h. All experiments were conducted in triplicate. The number of revertant colonies per plate was counted. The MR was calculated from the average of the revertant number divided by the average of negative control revertant number.

[2] = system: Salmonella typhimurium TA100
Procedure: as §1

[3] = system: Salmonella typhimurium TA102; details: TA102, +S9, positive control
Procedure: as §1

[4] = system: Salmonella typhimurium TA1535
Procedure: as §1

[5] = system: Salmonella typhimurium TA1537; assay: Bacterial reverse mutation test (Ames test), TA1537
Procedure: as §1

[6] = system: flies expressing human APP and BACE-1 in the developing eyes; assay: Drosophila eye morphology by scanning electron microscopy; assay type: in vivo, Drosophila melanogaster; details: AD flies, 21 days
Procedure: All fly stocks were maintained in a standard medium at 25 °C, 60% humidity, and a 12 h/12 h light–dark cycle in constant climate chambers with ICH-compliant light source (BINDER GmbH, Tuttlingen, Germany). […] Flies were cultivated for 21 days at 28 °C, with food changes every three days.
The external compound eyes were then inspected using JSM-IT510 InTouchScope™ SEM Series (JEOL, Peabody, MA, USA) in a vacuum mode.

[7] = molecular target: acetylcholinesterase (AChE) (Electrophorus electricus, UniProt O42275); details: in combination with donepezil
Procedure: AChE and BChE inhibition were determined using well-established protocols without modifications. For BACE-1 inhibition, we complied with the manufacturer’s instructions (BACE-1 FRET assay kit, Sigma-Aldrich, St. Louis, MO, USA).
The half-maximal inhibitory concentration (IC50) against AChE, BChE and BACE-1 were calculated using GraphPad Prism (version 9.0, La Jolla, CA, USA) as follows:(2) Y=Bottom+Top−Bottom/1+10^((logIC50−X) × (HillSlope)), where Y is response, decreasing as X increases, X is log of dose or concentration, Top and Bottom are plateaus in same units as Y, and Hillslope is data slope factor or hill slope, unitless.

β-secretase (BACE-1) = molecular target: T1, β-secretase (BACE-1) (Homo sapiens, UniProt P56817); assay: biochemical; assay type: biochemical; details: for BACE-1 inhibition (%): Figure 4
T1 construct: purchased Sigma-Aldrich

[8] = molecular target: butyrylcholinesterase (BChE) (Equus caballus, UniProt P81908); details: for interaction with donepezil to inhibit BChE: in combination with donepezil; for BChE inhibition (%): Figure 3
[9] = system: transgenic Drosophila model for AD; details: cited from earlier work
AChE = details: cited from earlier work; for IC50: read-out: AChE IC50
[10] = system: S. typhimurium TA98 and TA100; details: TA98 and TA100, with/without S9 extract; cited from earlier work
[11] = rat, in vivo; cited from earlier work
[12] = system: isolated rat liver nuclei; details: cited from earlier work
BACE-1 = details: cited from earlier work
PC12 cells = details: Aβ25–35-induced oxidative stress in PC12 cells; cited from earlier work
[13] = system: V79 Chinese hamster lung cells; details: cited from earlier work
human lymphocytes = details: cited from earlier work
[14] = cited from earlier work
[15] = sample alone at IC20 (donepezil 0)
[16] = sample alone at IC30 (donepezil 0)

T1 sequence (P56817 46-501): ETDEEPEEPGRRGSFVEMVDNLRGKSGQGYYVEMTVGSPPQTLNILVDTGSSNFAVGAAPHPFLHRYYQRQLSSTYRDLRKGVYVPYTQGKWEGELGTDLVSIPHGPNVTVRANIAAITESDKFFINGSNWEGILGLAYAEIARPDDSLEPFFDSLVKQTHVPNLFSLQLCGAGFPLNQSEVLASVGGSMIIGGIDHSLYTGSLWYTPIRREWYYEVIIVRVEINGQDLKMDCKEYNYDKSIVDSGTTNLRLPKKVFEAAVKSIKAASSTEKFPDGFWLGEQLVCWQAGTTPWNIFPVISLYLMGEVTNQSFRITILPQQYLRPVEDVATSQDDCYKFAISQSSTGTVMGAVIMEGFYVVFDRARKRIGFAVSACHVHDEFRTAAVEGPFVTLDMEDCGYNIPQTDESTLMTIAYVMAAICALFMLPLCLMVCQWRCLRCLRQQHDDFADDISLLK
Sequence of butyrylcholinesterase (BChE) (P81908 whole entry): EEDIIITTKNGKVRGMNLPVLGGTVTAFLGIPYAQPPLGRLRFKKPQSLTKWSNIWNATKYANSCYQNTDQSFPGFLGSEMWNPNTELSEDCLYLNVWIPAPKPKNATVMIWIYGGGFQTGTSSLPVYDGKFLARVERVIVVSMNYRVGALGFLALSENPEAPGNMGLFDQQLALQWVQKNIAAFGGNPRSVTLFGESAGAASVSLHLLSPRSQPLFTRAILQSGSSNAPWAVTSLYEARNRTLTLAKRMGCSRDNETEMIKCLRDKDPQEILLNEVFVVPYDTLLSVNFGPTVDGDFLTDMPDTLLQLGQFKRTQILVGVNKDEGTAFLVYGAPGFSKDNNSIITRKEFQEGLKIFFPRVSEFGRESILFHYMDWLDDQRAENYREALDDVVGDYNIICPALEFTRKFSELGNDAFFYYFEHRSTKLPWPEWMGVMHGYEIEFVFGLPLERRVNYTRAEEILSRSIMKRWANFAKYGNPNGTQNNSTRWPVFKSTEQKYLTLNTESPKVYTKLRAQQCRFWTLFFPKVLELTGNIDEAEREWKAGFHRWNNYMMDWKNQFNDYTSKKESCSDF
Sequence of acetylcholinesterase (AChE) (O42275 24-633): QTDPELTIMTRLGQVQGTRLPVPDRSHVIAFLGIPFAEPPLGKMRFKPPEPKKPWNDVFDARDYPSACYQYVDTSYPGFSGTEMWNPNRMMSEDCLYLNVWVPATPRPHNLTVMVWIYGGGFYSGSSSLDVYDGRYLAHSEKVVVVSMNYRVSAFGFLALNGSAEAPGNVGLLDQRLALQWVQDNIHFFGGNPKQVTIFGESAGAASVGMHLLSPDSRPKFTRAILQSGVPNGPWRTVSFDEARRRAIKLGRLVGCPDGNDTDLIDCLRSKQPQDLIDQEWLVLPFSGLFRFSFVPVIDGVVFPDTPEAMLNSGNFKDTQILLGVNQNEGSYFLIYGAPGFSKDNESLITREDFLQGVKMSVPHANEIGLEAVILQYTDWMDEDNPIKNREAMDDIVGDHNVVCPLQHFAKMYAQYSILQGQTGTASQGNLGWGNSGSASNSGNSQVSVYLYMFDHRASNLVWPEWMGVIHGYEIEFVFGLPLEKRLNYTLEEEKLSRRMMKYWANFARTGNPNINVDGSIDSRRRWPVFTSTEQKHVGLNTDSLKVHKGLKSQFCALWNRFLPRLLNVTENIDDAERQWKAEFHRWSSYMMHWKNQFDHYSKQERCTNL

## Nc1ccc2cc3ccccc3cc2c1 [2-AA, 2-aminoanthracen]
[1]
  MR (mutagenicity ratio): 14.15
  MR class: (+) ((+): indicates the mutagenicity ratio (MR) is ≥2)
  Revertant Colonies: 1396.00 ± 48.94
[2]; TA100, +S9, positive control
  MR (mutagenicity ratio): 10.04
  MR class: (+) ((+): indicates the mutagenicity ratio (MR) is ≥2)
  Revertant Colonies: 876.67 ± 34.21
[3]
  MR class: (+) ((+): indicates the mutagenicity ratio (MR) is ≥2)
  Revertant Colonies: 960.67 ± 29.07
[4]; TA1535, +S9, positive control
  MR (mutagenicity ratio): 33.32
  MR class: (+) ((+): indicates the mutagenicity ratio (MR) is ≥2)
  Revertant Colonies: 349.83 ± 18.89
[5]; TA1537, +S9, positive control
  MR (mutagenicity ratio): 20.71
  MR class: (+) ((+): indicates the mutagenicity ratio (MR) is ≥2)
  Revertant Colonies: 203.67 ± 5.56

## Nc1c2ccccc2nc2ccccc12 [9-AA, 9-aminoacridine]
[5]; TA1537, −S9, positive control
  MR (mutagenicity ratio): 86.67
  MR class: (+) ((+): indicates the mutagenicity ratio (MR) is ≥2)
  Revertant Colonies: 780.00 ± 24.11

## COc1cc2c(cc1OC)C(=O)C(CC1CCN(Cc3ccccc3)CC1)C2 (stereo not shown) [Donepezil, donepezil]
[6]; donepezil 2.5 µM
  eye morphology (retina degeneration, ommatidia and bristles): did not reverse retina degeneration
[6]; donepezil 5 µM
  eye morphology (retina degeneration, ommatidia and bristles): did not reverse retina degeneration
[6]; donepezil 10 µM
  eye morphology (retina degeneration, ommatidia and bristles): eye phenotypes roughly similar to the negative control

## O=c1c(O)c(-c2ccc(O)cc2)oc2cc(O)cc(O)c12 [Kaempferol, kaempferol]
[7]
  interaction with donepezil to inhibit AChE: slightly antagonized
β-secretase (BACE-1); in combination with donepezil
  interaction with donepezil on BACE-1: slightly antagonistically
β-secretase (BACE-1); read-out: Half-Maximal Inhibitory Concentration (IC50) BACE-1 (converted)
  IC50: 299 µM
β-secretase (BACE-1); [15]
  BACE-1 inhibition (%): 16%
β-secretase (BACE-1); [16]
  BACE-1 inhibition (%): 29%
[8]
  interaction with donepezil to inhibit BChE: slight synergism
[8]; [15]
  BChE inhibition (%): 22%
[8]; [16]
  BChE inhibition (%): 29%
[9]
  memory loss, climbing ability and AChE activity: delayed memory loss by maintaining climbing ability and reducing AChE activity
AChE
  mode of AChE inhibition: reversible mixed mode
  IC50: 12.4 µM
[10]
  genotoxicity in S. typhimurium: genotoxicity exclusively when the S9 extract was present
[11]
  tumor induction: did not significantly induce tumors
[12]
  nuclear DNA damages and lipid peroxidation: induced nuclear DNA damages and lipid peroxidation

## [N-]=[N+]=[N-].[Na+] [NaN3, sodium azide]
[2]; TA100, −S9, positive control
  MR (mutagenicity ratio): 17.14
  MR class: (+) ((+): indicates the mutagenicity ratio (MR) is ≥2)
  Revertant Colonies: 1145.33 ± 52.03
[4]; TA1535, −S9, positive control
  MR (mutagenicity ratio): 18.90
  MR class: (+) ((+): indicates the mutagenicity ratio (MR) is ≥2)
  Revertant Colonies: 214.17 ± 9.51

## O=c1c(O)c(-c2ccc(O)c(O)c2)oc2cc(O)cc(O)c12 [Quercetin, quercetin]
[7]
  interaction with donepezil to inhibit AChE: slightly antagonized
β-secretase (BACE-1); [15]
  BACE-1 inhibition (%): 22%
β-secretase (BACE-1); [16]
  BACE-1 inhibition (%): 33%
[8]
  interaction with donepezil to inhibit BChE: slight synergism
[8]; [15]
  BChE inhibition (%): 20%
[8]; [16]
  BChE inhibition (%): 32%
BACE-1
  IC50: […]
PC12 cells
  neuroprotective effects: demonstrated neuroprotective effects
AChE
  mode of AChE inhibition: […]
  IC50: […]
[10]
  genotoxicity in S. typhimurium: genotoxicity in the bacterial strains both with and without the S9 extract
[11]
  tumor induction: did not significantly induce tumors
[13]
  micronuclei induction: induced micronuclei
Human lymphocytes
  micronuclei induction: induced micronuclei

## O=C(/C=C/c1ccc(O)c(O)c1)O[C@H](Cc1ccc(O)c(O)c1)C(=O)O [rosmarinic acid]
[14]
  crossing of the BBB: reported to cross the BBB
